Results taken from publication PMC7063354, “Novel dipeptidyl peptidase‐IV and angiotensin‐I‐converting enzyme inhibitory peptides released from quinoa protein by in silico proteolysis” (Food Science & Nutrition, 2020).
Read-outs that look alike come from different tables or passages of the source. Peptide text beside a SMILES is read from it.

Columns and labels:
DPP-IV [1] = biological target: T1, DPP-IV (Homo sapiens, UniProt P27487); assay: DPP-IV inhibition assay (DPP-IV inhibitor screening assay kit, Gly-Pro-Aminomethylcoumarin substrate); assay type: biochemical; settings: chemically synthesized peptides; mean ± SD of three replicates
T1 construct: purchased Abnova KA1311
Method: The DPP‐IV inhibition assay was determined using DPP‐IV inhibitor screening assay kit (KA1311, Abnova). Briefly, peptide samples (10 μl), dispersed in assay buffer (20 mM Tris‐HCl containing 100 mM NaCl and 1 mM EDTA, pH 8.0) at various concentrations, were mixed with assay buffer and DPP‐IV in a 96‐well plate. Then, substrate solution (Gly‐Pro‐Aminomethylcoumarin) was added to initiate the reactions. The mixture was incubated at 37°C for 30 min, and the fluorescence was measured using a plate reader (Synergy MX, Bio Tek) at an excitation wavelength of 350 nm and an emission wavelength of 450 nm. The concentration of the DPP‐IV inhibitor required to inhibit 50% of DPP‐IV activity under the above assay conditions was defined as the IC50, which was the mean value from three independent replicate assays.

ACE = biological target: T2, ACE (Homo sapiens, UniProt P12821); assay: ACE inhibition assay (ACE kit-WST); assay type: biochemical; settings: chemically synthesized peptides; mean ± SD of three replicates
T2 construct: purchased ACE kit‐WST
Method: The ACE inhibition assay was carried out with the ACE inhibitory assay kit (ACE kit‐WST). Absorbance at 450 nm was measured using a plate reader (SpectraMax plus, Molecular devices), and the IC50 value reported for each sample was the mean value from three independent replicate assays.

DPP-IV [2] = biological target: T1, DPP-IV; design: method as in Vilcacundo et al., 2017; settings: peptide released from quinoa protein by pepsin-pancreatin digestion; ref Vilcacundo et al., 2017; read-out: IC50 DPP-IV inhibitory activity; cited from earlier work

T1 sequence (P27487 whole entry): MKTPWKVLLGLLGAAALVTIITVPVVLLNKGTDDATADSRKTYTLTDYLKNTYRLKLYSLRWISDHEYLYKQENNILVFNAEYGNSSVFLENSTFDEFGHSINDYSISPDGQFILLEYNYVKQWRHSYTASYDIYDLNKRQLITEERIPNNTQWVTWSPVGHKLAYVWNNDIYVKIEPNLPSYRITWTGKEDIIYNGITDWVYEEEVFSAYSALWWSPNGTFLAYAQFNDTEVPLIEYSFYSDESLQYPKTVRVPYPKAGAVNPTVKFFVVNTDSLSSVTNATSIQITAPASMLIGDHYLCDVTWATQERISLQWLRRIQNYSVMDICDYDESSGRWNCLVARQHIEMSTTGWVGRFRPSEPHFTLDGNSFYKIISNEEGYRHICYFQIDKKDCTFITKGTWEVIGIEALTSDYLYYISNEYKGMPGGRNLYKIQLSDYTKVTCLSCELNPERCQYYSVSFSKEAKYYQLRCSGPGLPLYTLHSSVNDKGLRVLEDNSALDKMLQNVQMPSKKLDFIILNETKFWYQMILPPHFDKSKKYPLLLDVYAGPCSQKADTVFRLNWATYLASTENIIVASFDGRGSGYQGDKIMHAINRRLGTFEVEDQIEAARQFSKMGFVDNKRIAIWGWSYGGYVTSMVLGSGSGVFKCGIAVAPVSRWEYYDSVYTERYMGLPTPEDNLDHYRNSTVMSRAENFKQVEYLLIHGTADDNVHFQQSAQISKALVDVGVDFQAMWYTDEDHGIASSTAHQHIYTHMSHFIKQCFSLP
T2 sequence (P12821 30-1306, species assumed): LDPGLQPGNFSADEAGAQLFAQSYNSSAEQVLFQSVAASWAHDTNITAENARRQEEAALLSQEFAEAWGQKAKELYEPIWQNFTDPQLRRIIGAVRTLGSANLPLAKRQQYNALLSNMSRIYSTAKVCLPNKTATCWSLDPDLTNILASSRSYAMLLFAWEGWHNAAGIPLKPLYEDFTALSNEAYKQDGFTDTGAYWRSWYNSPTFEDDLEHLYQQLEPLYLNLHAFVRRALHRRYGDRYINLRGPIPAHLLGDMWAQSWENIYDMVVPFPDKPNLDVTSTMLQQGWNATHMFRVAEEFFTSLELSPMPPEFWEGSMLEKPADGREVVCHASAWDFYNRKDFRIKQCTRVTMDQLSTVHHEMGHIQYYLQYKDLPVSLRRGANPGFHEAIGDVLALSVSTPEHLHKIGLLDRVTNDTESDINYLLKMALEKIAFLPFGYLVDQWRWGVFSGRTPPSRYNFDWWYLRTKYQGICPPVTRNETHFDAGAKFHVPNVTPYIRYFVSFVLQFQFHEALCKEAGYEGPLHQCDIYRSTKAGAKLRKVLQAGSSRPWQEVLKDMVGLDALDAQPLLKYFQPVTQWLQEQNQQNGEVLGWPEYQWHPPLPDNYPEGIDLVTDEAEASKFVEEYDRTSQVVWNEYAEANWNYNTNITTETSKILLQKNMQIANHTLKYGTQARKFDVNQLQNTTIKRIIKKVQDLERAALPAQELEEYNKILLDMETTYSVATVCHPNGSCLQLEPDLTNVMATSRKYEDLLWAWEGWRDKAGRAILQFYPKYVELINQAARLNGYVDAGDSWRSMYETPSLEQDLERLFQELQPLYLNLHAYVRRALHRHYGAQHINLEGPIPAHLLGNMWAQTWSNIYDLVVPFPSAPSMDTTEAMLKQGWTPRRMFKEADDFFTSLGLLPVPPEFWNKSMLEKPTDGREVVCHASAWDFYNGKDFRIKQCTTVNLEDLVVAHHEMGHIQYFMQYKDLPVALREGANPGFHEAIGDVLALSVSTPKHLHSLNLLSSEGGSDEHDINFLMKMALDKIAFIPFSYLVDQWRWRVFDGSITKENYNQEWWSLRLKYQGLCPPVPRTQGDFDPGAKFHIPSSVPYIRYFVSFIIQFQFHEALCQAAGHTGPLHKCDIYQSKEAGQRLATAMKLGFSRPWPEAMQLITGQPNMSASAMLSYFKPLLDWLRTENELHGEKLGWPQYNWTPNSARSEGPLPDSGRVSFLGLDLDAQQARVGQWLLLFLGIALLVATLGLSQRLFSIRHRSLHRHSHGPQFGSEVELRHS

Compound	IC50 (DPP-IV [1]) [µM]	IC50 (ACE) [µM]	IC50 (DPP-IV [2]) [µM]
N[C@@H](Cc1cnc[nH]1)C(=O)N1CCC[C@H]1C(=O)N[C@@H](Cc1ccccc1)C(=O)O [HPF] (H-His-Pro-Phe-OH)	34.3	100	–
CSCC[C@H](N)C(=O)N[C@@H](C)C(=O)N[C@@H](Cc1ccccc1)C(=O)O [MAF] (H-Met-Ala-Phe-OH)	338	152	–
CSCC[C@H](N)C(=O)N[C@@H](CS)C(=O)NCC(=O)O [MCG] (H-Met-Cys-Gly-OH)	149	20.9	–
CSCC[C@H](NC(=O)[C@@H](N)CC(N)=O)C(=O)N[C@@H](Cc1ccccc1)C(=O)O [NMF] (H-Asn-Met-Phe-OH)	127	152	–
IQAEGGLT	–	–	268
